Results published in patent US7453000B2, “Substituted oxazolobenzoisothiazole dioxide derivatives method for production and use thereof” (Sanofi-Aventis Deutschland GmbH, priority 2004, dated 2008).

Each compound was assayed against T1, human PTP1B (Homo sapiens, UniProt P18031) (assay: Enzymatic test system for detecting inhibition of a phosphatase (recombinant hPTP1B; phosphopeptide dephosphorylation / p-nitrophenyl phosphate cleavage)). Details: inhibition of recombinant hPTP1B (1-299 aa, expressed in Sf9 cells); Table 2 does not say which substrate procedure (A phosphopeptide or B pNPP).
T1 construct: without the carboxy-terminal hydrophobic region (corresponding to 1-299 aa); made in house; host or cells: Sf9 insect cells (Spodoptera frugiperda), baculovirus (Bac-to-Bac, pFASTBAC)
T1 sequence (P18031 1-299): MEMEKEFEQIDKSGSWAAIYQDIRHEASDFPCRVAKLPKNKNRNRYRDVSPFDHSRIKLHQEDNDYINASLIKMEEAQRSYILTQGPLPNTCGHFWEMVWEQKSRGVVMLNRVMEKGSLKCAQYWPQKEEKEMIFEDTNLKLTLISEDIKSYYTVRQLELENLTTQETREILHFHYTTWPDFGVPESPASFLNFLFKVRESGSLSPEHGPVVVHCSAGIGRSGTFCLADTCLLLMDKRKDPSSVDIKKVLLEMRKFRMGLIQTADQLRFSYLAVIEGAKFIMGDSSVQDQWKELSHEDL
Format: biochemical
Method: The activity of the compounds was tested as follows:
Enzymatic test systems for detecting inhibition of a phosphatase
The compounds of the formula I were tested for their phosphatase-inhibiting effect in an in vitro assay. The enzyme preparation and the performance of the assay was carried out as follows.
Obtaining the Enzyme Preparation:
• Sf9 cells (=Spodoptera frugiperda cell type; obtainable from invitrogen) are cultured in Grace's supplemented medium (Gibco-BRL) with 10% heat-inactivated fetal calf serum (Gibco-BRL) in spinner flasks at 28° C. in accordance with the protocol of Summers and Smith (A Manual for Methods for Baculoviruns Vectors and Insect Culture Procedures [Bulletin No. 15555]. Texas A & M University, Texas Agricultural Experiment Station, College Station, Tex., 1987). • Construction of recombinant Baculovirus transfer vectors: cDNA coding for the regulatory and catalytic domains of human PTP1B, but without the carboxy-terminal hydrophobic region (corresponding to 1-299 aa) was obtained by polymerase chain reaction via primers with attached cloning sites and suitable cDNA templates (obtainable for example from invitrogen) and then cloned into baculovirus expression vectors (Amersham Pharmacia Biotech.). The recombinant baculoviruses were prepared with the aid of the Bac-to-Bac baculovirus expression system (obtainable from Gibco-BRL). The gene was cloned into the pFASTBAC donor plasmid (obtainable from Life Technologies). The resulting plasmid was transformed into competent DH10BAC Escherichia coli cells (obtainable from Life Technologies). After transposition and antibiotic selection, the recombinant plasmid DNA was isolated from selected E. coli colonies and then used for the transfection of Sf9 insect cells. The virus particle in the supernatant medium was amplified three times up to a viral stock volume of 500 ml. B) Production of Recombinant Protein: • Baculovirus infection of a 500 ml spinner culture of Sf9 cells was essentially carried out as described by Summers and Smith (see above). Sf9 cells at a density of 1-3×10^6 cells/ml were pelleted by centrifugation at 300 g for 5 min, the supernatant was removed, and the cells were resuspended in a density of 1×10^7 cells/ml in a suitable recombinant viral stock (MOI 10). After careful shaking at room temperature for 1.5 h, fresh medium was added in order to achieve a cell density of 1×10^6 cells/ml. The cells were then cultured in suspension at 28° C. for suitable periods after postinfection. C) Cellular Fractionation and Complete Cell Extracts of Infected Sf9 Cells: • After the postinfection, aliquots were subjected to an analysis of protein expression by SDS-PAGE and Western blot analysis. The cellular fractionation was carried out as described (Cromlish, W. and Kennedy, B. Biochem. Pharmacol. 52: 1777-1785, 1996). Complete cell extracts were obtained from 1 ml aliquots of the infected Sf9 cells after certain times postinfection. The pelleted cells (300×g, 5 min) were washed once in phosphate-buffered saline (4° C.), resuspended in 50 μl of water and disrupted by repeated freezing/thawing. Protein concentrations were determined with the aid of the Bradford method and bovine serum albumin as standard. Assay Procedure: A) Dephosphorylation of a Phosphopeptide: • This assay is based on the release of phosphate from a consensus substrate peptide which is detected in the nanomolar concentration range by the malachite green/ammonium molybdate method (Lanzefta, P. A., Alvarez, L. J., Reinach, P. S., Candia, O. A. Anal Biochem. 100: 95-97, 1979) adapted for the microtiter plate format. The dodecatrisphosphopeptide TRDIYETDYYRK (Biotrend, Cologne) corresponds to amino acids 1142-1153 of the catalytic domain of the insulin receptor and is (auto)phosphorylated on tyrosine residues 1146, 1150 and 1151. […]

| IC50 [µM] | SMILES |
| --- | --- |
| 290 | O=C(O)COc1ccc(-c2cnc(Nc3ccc4c(c3)CS(=O)(=O)N4)o2)cc1 [Example 8] |
| 2.16 | O=S1(=O)Cc2cc(Nc3ncc(-c4ccc(-c5ccc(Cl)cc5)cc4)o3)ccc2N1 [Example 5] |
| 6.12 | CC(C)(C)c1cc(-c2cnc(Nc3ccc4c(c3)CS(=O)(=O)N4)o2)cc(C(C)(C)C)c1O [Example 4] |
| 15.7 | O=S1(=O)Cc2cc(Nc3ncc(-c4ccc(C(F)(F)F)cc4)o3)ccc2N1 [Example 3] |
| 12.6 | O=S1(=O)Cc2cc(Nc3ncc(-c4cccc(Br)c4)o3)ccc2N1 [Example 2] |
| 162 | O=C(O)c1cc(-c2cnc(Nc3ccc4c(c3)CS(=O)(=O)N4)o2)ccc1O [Example 7] |
| 9.44 | O=S1(=O)Cc2cc(Nc3ncc(-c4ccc(Br)s4)o3)ccc2N1 [Example 6] |
| 7.3 | N#Cc1cccc(-c2cnc(Nc3ccc4c(c3)CS(=O)(=O)N4)o2)c1 [Example 1] |
